Data taken from US20040102364A1, “Backbone cyclized radiolabelled somatostatin analogs” (priority 2001, published 2004).
Where two headings read alike, the source gives them in different places.

Experiments:
[1] = target: T1, human SST-R1 (Homo sapiens, UniProt P30872); assay: Inhibition of 125I-Tyr11-SRIF binding to cloned human SST-R1 membranes; details: human cloned receptor; read-out: Concentration (nM) of SST analogs to inhibit SRIF binding by 50%, SST-R 1
T1 construct: expressed in transfected cells; host or cells: CHO cells
Protocol: (§1) The SST analogs were tested for their potency in inhibition of the binding of ^125I-Tyr^11-SRIF (based on the method described by Raynor et. al., Molecular Pharmacology 43: 838, 1993) to membrane preparations expressing the transmembranal SST receptors (SST-R1, 2, 3, 4 or 5). The receptor preparations used for these tests were either from the cloned human receptors selectively and stably expressed in Chinese Hamster Ovary (CHO) cells or from cell lines naturally expressing the SST-Rs. […] The binding reactions were filtered, the filters were washed and the bound radioactivity was counted in β counter after addition of scintillation solution.

[2] = target: T2, human cloned SST-R2 (Homo sapiens, UniProt P30874); assay: Inhibition of 125I-Tyr11-SRIF binding to cloned human SST-R2 membranes (CHO cells)
T2 construct: expressed in transfected cells; host or cells: CHO cells
Protocol: as §1

[3] = target: T3, human SST-R3 (Homo sapiens, UniProt P32745); assay: Inhibition of 125I-Tyr11-SRIF binding to cloned human SST-R3 membranes; details: human cloned receptor; read-out: Concentration (nM) of SST analogs to inhibit SRIF binding by 50%, SST-R 3
T3 construct: expressed in transfected cells; host or cells: CHO cells
Protocol: as §1

[4] = target: T4, human SST-R4 (Homo sapiens, UniProt P31391); assay: Inhibition of 125I-Tyr11-SRIF binding to cloned human SST-R4 membranes; details: human cloned receptor; read-out: Concentration (nM) of SST analogs to inhibit SRIF binding by 50%, SST-R 4
T4 construct: expressed in transfected cells; host or cells: CHO cells
Protocol: as §1

[5] = target: T5, human SST-R5 (Homo sapiens, UniProt P35346); assay: Inhibition of 125I-Tyr11-SRIF binding to cloned human SST-R5 membranes; details: human cloned receptor; read-out: Concentration (nM) of SST analogs to inhibit SRIF binding by 50%, SST-R 5
T5 construct: expressed in transfected cells; host or cells: CHO cells
Protocol: as §1

[6] = target: rat SST-R1 (Rattus norvegicus, UniProt P28646); assay: Subtype selectivity binding, rat SST-R1
Protocol: as §1
(§2) MPS-30012-02, 30012-08 and 30012-24 were all re-synthesized naked, purified and radiolabelled with ^99mTc. In vitro binding studies on all three ^99mTc compounds was performed. 30012-05, 30012-08 and 30012-24 were screened for subtype selectivity analysis.

[7] = target: rat SST-R2 (Rattus norvegicus, UniProt P30680); assay: Subtype selectivity binding, rat SST-R2
Protocol: as §1, §2

[8] = target: rat SST-R3 (Rattus norvegicus, UniProt P30936); assay: Subtype selectivity binding, rat SST-R3
Protocol: as §1, §2

[9] = target: rat SST-R4 (Rattus norvegicus, UniProt P30937); assay: Subtype selectivity binding, rat SST-R4
Protocol: as §1, §2

[10] = target: T6, rat SST-R5 (Rattus norvegicus, UniProt P30938); assay: Subtype selectivity binding, rat SST-R5
T6 sequence (P30938 1-363): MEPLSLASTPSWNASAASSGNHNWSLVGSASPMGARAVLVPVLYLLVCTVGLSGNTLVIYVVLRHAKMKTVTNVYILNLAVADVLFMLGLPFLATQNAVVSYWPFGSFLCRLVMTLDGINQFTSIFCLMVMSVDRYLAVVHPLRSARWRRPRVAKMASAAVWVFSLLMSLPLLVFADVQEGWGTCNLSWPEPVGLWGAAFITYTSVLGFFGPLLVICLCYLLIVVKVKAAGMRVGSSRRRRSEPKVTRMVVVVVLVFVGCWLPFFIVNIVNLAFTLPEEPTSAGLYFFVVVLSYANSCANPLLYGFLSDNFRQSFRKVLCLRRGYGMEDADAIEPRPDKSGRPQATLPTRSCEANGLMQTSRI
Protocol: as §1, §2

[11] = human cloned receptor, read-out: Concentration (nM) of SST analogs to inhibit SRIF binding by 50%, SST-R 2
[12] = # rows: determined in rat somatostatin receptors, read-out: Concentration (nM) of SST analogs to inhibit SRIF binding by 50%, SST-R 1
[13] = rat SST-R1, read-out: Selectivity: IC50, nM, rat SST-R-1
[14] = # rows: determined in rat somatostatin receptors, read-out: Concentration (nM) of SST analogs to inhibit SRIF binding by 50%, SST-R 2
[15] = rat SST-R2, read-out: Selectivity: IC50, nM, rat SST-R-2
[16] = # rows: determined in rat somatostatin receptors, read-out: Concentration (nM) of SST analogs to inhibit SRIF binding by 50%, SST-R 3
[17] = rat SST-R3, read-out: Selectivity: IC50, nM, rat SST-R-3
[18] = # rows: determined in rat somatostatin receptors, read-out: Concentration (nM) of SST analogs to inhibit SRIF binding by 50%, SST-R 4
[19] = rat SST-R4, read-out: Selectivity: IC50, nM, rat SST-R-4
[20] = # rows: determined in rat somatostatin receptors, read-out: Concentration (nM) of SST analogs to inhibit SRIF binding by 50%, SST-R 5
[21] = rat SST-R5, read-out: Selectivity: IC50, nM, rat SST-R-5

Chain of rat SST-R2 (P30680 whole entry): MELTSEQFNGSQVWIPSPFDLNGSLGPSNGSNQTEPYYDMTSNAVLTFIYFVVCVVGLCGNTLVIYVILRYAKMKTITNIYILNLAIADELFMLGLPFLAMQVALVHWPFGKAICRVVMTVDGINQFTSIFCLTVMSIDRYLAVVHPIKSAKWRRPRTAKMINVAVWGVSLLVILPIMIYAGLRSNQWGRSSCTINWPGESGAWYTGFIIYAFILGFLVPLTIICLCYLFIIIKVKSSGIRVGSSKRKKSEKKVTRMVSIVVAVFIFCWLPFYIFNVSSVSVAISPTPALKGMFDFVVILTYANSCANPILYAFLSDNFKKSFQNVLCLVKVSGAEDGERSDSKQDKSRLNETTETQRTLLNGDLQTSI
Chain of rat SST-R4 (P30937 whole entry): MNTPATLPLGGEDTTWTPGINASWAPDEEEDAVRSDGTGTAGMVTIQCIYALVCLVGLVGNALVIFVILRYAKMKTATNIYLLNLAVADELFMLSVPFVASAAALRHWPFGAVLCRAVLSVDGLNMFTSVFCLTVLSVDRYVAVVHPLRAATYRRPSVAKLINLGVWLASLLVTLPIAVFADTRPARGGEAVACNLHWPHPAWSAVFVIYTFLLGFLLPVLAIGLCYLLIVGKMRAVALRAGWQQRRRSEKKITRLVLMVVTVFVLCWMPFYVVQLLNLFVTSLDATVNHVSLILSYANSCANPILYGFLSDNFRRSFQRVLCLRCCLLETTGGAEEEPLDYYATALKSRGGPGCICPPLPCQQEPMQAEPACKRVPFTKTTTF
T2 sequence (P30874 whole entry): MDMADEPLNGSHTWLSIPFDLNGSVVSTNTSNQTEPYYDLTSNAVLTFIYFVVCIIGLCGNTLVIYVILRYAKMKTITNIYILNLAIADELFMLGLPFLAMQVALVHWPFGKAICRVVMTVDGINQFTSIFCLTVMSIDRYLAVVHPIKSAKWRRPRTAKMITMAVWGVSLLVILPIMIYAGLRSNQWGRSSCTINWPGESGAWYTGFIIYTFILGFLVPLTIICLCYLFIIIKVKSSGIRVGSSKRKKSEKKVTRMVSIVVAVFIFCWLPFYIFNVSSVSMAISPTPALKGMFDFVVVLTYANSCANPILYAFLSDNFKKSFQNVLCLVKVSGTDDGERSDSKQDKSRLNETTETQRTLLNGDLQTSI
Chain of rat SST-R1 (P28646 whole entry): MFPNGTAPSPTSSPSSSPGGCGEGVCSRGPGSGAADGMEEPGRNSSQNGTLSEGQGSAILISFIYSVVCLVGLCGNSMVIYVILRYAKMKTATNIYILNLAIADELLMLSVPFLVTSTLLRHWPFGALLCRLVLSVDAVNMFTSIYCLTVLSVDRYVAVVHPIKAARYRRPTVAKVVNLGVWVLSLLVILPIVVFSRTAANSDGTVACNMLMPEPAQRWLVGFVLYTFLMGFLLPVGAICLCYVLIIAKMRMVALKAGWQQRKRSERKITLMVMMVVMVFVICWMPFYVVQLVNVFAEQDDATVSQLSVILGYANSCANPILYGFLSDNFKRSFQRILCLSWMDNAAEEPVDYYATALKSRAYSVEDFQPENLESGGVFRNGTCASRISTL
Chain of rat SST-R3 (P30936 whole entry): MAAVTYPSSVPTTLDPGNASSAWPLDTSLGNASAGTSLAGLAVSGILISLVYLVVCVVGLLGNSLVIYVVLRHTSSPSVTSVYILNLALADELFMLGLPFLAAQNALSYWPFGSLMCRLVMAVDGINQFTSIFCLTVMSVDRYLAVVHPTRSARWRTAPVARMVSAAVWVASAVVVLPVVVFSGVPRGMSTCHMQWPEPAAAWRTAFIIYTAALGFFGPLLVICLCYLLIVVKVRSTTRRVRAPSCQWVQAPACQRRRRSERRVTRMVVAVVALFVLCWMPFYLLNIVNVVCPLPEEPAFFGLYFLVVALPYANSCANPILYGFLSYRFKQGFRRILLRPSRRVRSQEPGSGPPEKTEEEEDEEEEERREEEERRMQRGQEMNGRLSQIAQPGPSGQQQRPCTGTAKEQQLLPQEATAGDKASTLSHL
T5 sequence (P35346 whole entry): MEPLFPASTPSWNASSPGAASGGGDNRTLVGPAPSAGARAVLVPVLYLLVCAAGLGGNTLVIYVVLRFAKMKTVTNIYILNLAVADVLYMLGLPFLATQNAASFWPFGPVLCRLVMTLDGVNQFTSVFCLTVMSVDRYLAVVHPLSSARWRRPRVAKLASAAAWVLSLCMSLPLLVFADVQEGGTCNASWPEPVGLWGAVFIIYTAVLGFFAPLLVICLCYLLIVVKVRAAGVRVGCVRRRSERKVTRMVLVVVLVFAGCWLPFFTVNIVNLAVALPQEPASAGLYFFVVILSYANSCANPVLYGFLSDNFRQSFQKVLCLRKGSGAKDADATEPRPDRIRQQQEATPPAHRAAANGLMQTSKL
T1 sequence (P30872 whole entry): as the sequence (P28646 whole entry) above, with P8S, T11S, S16P, G20S, V25G, C26G, S32A, S45A, A385T, S389T counted along it
T3 sequence (P32745 whole entry): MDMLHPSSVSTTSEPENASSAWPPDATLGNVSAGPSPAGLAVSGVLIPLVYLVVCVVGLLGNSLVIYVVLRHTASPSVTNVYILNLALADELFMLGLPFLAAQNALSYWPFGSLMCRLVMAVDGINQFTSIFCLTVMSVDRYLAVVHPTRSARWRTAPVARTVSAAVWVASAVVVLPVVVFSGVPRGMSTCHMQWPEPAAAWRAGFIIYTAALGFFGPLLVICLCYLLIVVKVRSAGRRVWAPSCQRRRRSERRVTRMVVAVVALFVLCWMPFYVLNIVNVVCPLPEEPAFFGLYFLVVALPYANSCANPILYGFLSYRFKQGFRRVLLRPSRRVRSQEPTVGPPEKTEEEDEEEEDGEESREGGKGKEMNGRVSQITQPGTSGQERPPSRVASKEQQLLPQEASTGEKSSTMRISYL
T4 sequence (P31391 whole entry): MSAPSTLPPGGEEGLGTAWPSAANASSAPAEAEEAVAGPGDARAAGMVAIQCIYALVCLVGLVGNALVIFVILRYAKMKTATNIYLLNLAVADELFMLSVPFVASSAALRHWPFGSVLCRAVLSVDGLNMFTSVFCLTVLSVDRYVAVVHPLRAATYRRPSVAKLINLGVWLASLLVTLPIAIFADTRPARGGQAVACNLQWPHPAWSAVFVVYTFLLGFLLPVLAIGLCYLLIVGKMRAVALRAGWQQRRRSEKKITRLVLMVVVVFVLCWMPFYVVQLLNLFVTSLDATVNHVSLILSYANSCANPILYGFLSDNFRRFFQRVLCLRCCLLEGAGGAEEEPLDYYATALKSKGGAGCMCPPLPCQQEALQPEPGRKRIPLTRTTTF

Row | Compound | IC50 [2, 11] [nM] | IC50 [6, 12] [nM] | IC50 [6, 13] [nM] | IC50 [7, 14] [nM] | IC50 [7, 15] [nM] | IC50 [8, 16] [nM] | IC50 [8, 17] [nM] | IC50 [9, 18] [nM] | IC50 [9, 19] [nM] | IC50 [10, 20] [nM] | IC50 [10, 21] [nM] | also measured
1 | C[C@@H](O)[C@@H]1NC(=O)[C@H](CCCCN)NC(=O)[C@@H](Cc2c[nH]c3ccccc23)NC(=O)[C@H](Cc2ccccc2)NC(=O)[C@@H]2CSSC[C@H](NC1=O)C(=O)N([C@@H](Cc1ccccc1)C(N)=O)CCCNC(=O)CCCN[C@@H](Cc1ccccc1)C(=O)N2 [PTR 3205, PheC3-Cys-Phe-(D)Trp-Lys-Thr-Cys-PheN3-NH2] | 1.5 |  |  |  |  |  |  |  |  |  |  | IC50 [1]: 349 nM; IC50 [3]: 323 nM; IC50 [4]: 123 nM; IC50 [5]: 186 nM
2 | C[C@@H](O)[C@@H]1NC(=O)[C@H](CCCCN)NC(=O)[C@@H](Cc2c[nH]c3ccccc23)NC(=O)[C@H](Cc2ccccc2)NC(=O)[C@@H]2CSSC[C@H](NC1=O)C(=O)N([C@@H](Cc1ccccc1)C(N)=O)CCCNC(=O)CCCN(C(=O)CNC(=O)CNC(=O)CNC(=O)CS)[C@@H](Cc1ccccc1)C(=O)N2 [PTR 3261, MAG3-PheC3-Cys-Phe-(D)Trp-Lys-Thr-Cys-PheN3-NH2] | 100 |  |  |  |  |  |  |  |  |  |  | IC50 ([2]; human cloned SST-R2, 95% confidence interval given, read-out: IC50 calculated from the binding results of Table 3): 119 nM; Total Bound (3-[125I]tyrosyl11)somatostatin-14 (cpm), Run 1 ([2]; peptide conc. 10 nM): 8335 cpm; Total Bound (3-[125I]tyrosyl11)somatostatin-14 (cpm), Run 2 ([2]; peptide conc. 10 nM): 8820 cpm; Total Bound (3-[125I]tyrosyl11)somatostatin-14 (cpm), Run 3 ([2]; peptide conc. 10 nM): 8098 cpm; Total Bound (3-[125I]tyrosyl11)somatostatin-14 (cpm), Run 1 ([2]; peptide conc. 100 nM): 5398 cpm; Total Bound (3-[125I]tyrosyl11)somatostatin-14 (cpm), Run 2 ([2]; peptide conc. 100 nM): 5328 cpm; Total Bound (3-[125I]tyrosyl11)somatostatin-14 (cpm), Run 3 ([2]; peptide conc. 100 nM): 5679 cpm; Total Bound (3-[125I]tyrosyl11)somatostatin-14 (cpm), Run 1 ([2]; peptide conc. 1000 nM): 1941 cpm; Total Bound (3-[125I]tyrosyl11)somatostatin-14 (cpm), Run 2 ([2]; peptide conc. 1000 nM): 3169 cpm; Total Bound (3-[125I]tyrosyl11)somatostatin-14 (cpm), Run 3 ([2]; peptide conc. 1000 nM): 2024 cpm; Total Bound (3-[125I]tyrosyl11)somatostatin-14 (cpm), Run 1 ([2]; peptide conc. 10000 nM): 917 cpm; Total Bound (3-[125I]tyrosyl11)somatostatin-14 (cpm), Run 2 ([2]; peptide conc. 10000 nM): 1106 cpm; Total Bound (3-[125I]tyrosyl11)somatostatin-14 (cpm), Run 3 ([2]; peptide conc. 10000 nM): 2281 cpm
3 | ReO-MA-Dpr(Gly)-Dab*-Phe-Trp-(D)Trp-Lys-Thr-Phe-GlyC3*-NH2 [PTR 3395] | 1.14 |  |  |  |  |  |  |  |  |  |  | 

Now from value to compound, other results behind:

Row | IC50 [2, 11] [nM] | IC50 [6, 12] [nM] | IC50 [6, 13] [nM] | IC50 [7, 14] [nM] | IC50 [7, 15] [nM] | IC50 [8, 16] [nM] | IC50 [8, 17] [nM] | IC50 [9, 18] [nM] | IC50 [9, 19] [nM] | IC50 [10, 20] [nM] | IC50 [10, 21] [nM] | Compound | also measured
4 |  | 89 | 89 | 0.25 | 0.25 | 76 | 76 | 3.3 | 3.3 | 2.2 | 2.2 | ReO-MA-Dpr(Gly)-Gly-Dab*-Phe-Trp-(D)Trp-Lys-Thr-Phe-GlyC3*-NH2 [ReO-3397] | 
5 |  | 156 | 156 | 1.6 | 1.6 | 103 | 103 | 15 | 15 | 1.3 | 1.3 | ReO-MA-Dpr(Gly)-βAla-Dab*-Phe-Trp-(D)Trp-Lys-Thr-Phe-GlyC3*-NH2 [PTR 3399] | binding to SST-R5 (in words) [10]: binds
6 |  | 402 | 402 | 0.44 | 0.44 | 110 | 110 | 20 | 20 | 3.7 | 3.7 | ReO-MA-Gly-Gly-Gly-6-aminohexanoic acid-Dab*-Phe-Trp-(D)Trp-Lys-Thr-Phe-GlyC3*-NH2 [PTR 3401] | 
